Measured values taken from patent publication US10336762B2 (priority 2017, dated 2019).

tested on: TNFα; test: cells; type: cell-based, human; conditions: Homo sapiens, Monocyte, LPS-stimulated human monocytes, TNFα by TR-FRET; read-out: EC50 TNF

Compound	EC50
CC(C)(O)[C@H](F)CNC(=O)c1cnc(-c2ccc3cc(C#N)cnn23)cc1Nc1cncc(OCC(F)F)c1 [Example 852, (R)-6-(3-cyanopyrrolo[1,2-b]pyridazin-7-yl)-4-((5-(2,2-difluoroethoxy)pyridin-3-yl)amino)-N-(2-fluoro-3-hydroxy-3-methylbutyl) nicotinamide]	3 nM

same assay, conditions: Homo sapiens, Monocyte, LPS-stimulated human monocytes, TNFα content; read-out: EC50 TNF

Compound	EC50
CC(C)(O)[C@H](F)CNC(=O)c1cnc(-c2ccc3cc(C#N)cnn23)cc1NC1(CO)CC1 [Example 51, (R)-6-(3-cyanopyrrolo[1,2-b]pyridazin-7-yl)-N-(2-fluoro-3-hydroxy-3-methylbutyl)-4-((1-(hydroxymethyl)cyclopropyl)amino)nicotinamide]	159 nM
CC(C)Nc1cc(-c2ccc3cc(C#N)cnn23)ncc1C(=O)NCCC1COC1 [Example 52, 6-(3-cyanopyrrolo[1,2-b]pyridazin-7-yl)-4-(isopropylamino)-N-(2-(oxetan-3-yl)ethyl) nicotinamide]	86 nM
CC(C)(O)[C@H](F)CNC(=O)c1cnc(-c2ccc3cc(C#N)cnn23)cc1NC1CC1 [Example 55, (R)-6-(3-cyanopyrrolo[1,2-b]pyridazin-7-yl)-4-(cyclopropylamino)-N-(2-fluoro-3-hydroxy-3-methylbutyl) nicotinamide]	28 nM
CC(C)(O)[C@H](F)CNC(=O)c1cnc(-c2ccc3cc(C#N)cnn23)cc1NCCS(C)(=O)=O [Example 102, (R)-6-(3-cyanopyrrolo[1,2-b]pyridazin-7-yl)-N-(2-fluoro-3-hydroxy-3-methylbutyl)-4-((2-(methylsulfonyl)ethyl)amino) nicotinamide]	313 nM
CC(C)(O)[C@H](F)CNC(=O)c1cnc(-c2ccc3cc(C#N)cnn23)cc1Nc1nc2ccccc2s1 [Example 377]	426 nM
CNc1cc(-c2ccc3cc(C#N)cnn23)ncc1C(=O)NC[C@@H](F)C(C)(C)O [Example 379, (R)-6-(3-cyanopyrrolo[1,2-b]pyridazin-7-yl)-N-(2-fluoro-3-hydroxy-3-methylbutyl)-4-(methyl-amino)nicotinamide]	57 nM
N#Cc1cnn2c(-c3cc(N[C@H]4CCC[C@@H](O)C4)c(C(=O)NC4CCC(F)(F)CC4)cn3)ccc2c1 [Example 431, 6-(3-cyanopyrrolo[1,2-b]pyridazin-7-yl)-N-(4,4-difluorocyclohexyl)-4-(((1S,3R)-3-hydroxy-cyclohexyl)amino) nicotinamide]	441 nM
Cn1cc(Nc2cc(-c3ccc4cc(C#N)cnn34)ncc2C(=O)NC[C@@H](F)C(C)(C)O)ccc1=O [Example 441, (R)-6-(3-cyanopyrrolo[1,2-b]pyridazin-7-yl)-N-(2-fluoro-3-hydroxy-3-methylbutyl)-4-((1-methyl-6-oxo-1,6-dihydropyridin-3-yl)amino)nicotinamide]	1300 nM
CC(=O)NCC(F)(F)CNC(=O)c1cnc(-c2ccc3cc(C#N)cnn23)cc1NC(C)C [Example 551, N-(3-acetamido-2,2-difluoropropyl)-6-(3-cyanopyrrolo[1,2-b]pyridazin-7-yl)-4-(isopropylamino)nicotinamide]	809 nM
CC(C)(O)[C@H](F)CNC(=O)c1cnc(-c2ccc3cc(C#N)cnn23)cc1Nc1cccc(OC(F)(F)F)c1 [Example 607, (R)-6-(3-cyanopyrrolo[1,2-b]pyridazin-7-yl)-N-(2-fluoro-3-hydroxy-3-methylbu1yl)-4-((3-(trifluoromethoxy)phenyl)amino)nicotinamide]	1440 nM
CNC(=O)OC[C@@H]1C[C@H]1Nc1cc(-c2ccc3cc(C#N)cnn23)ncc1C(=O)NC[C@@H](F)C(C)(C)O [Example 747]	169 nM

same assay, conditions: LPS-stimulated human monocytes, TNFα content; read-out: EC50 TNF

Compound	EC50
6-(3-cyanopyrrolo[1,2- b]pyridazin-7-yl)-N-((R)- 2-fluoro-3-hydroxy-3- methylbutyl)-4-(((1s,3S)-3- hydroxyadamantan-1- yl)amino)nicotinamide [Example 525]	11 nM
6-(3-cyanopyrrolo[1,2-b]pyridazin-7-yl)-N-(2-(hydroxymethyl)cyclopropyl)-4-(isopropylamino)nicotinamide [Example 19]	926 nM
